Experimental findings from patent US7514417B2 (CV Therapeutics, Inc., priority 2005, dated 2009) are described below.

The structures appear in SMILES notation.

The assay has as its target T1, A1 adenosine receptor (Mesocricetus auratus, UniProt A0A1U8BVR4).
T1 construct: A1 adenosine receptor sites on the membranes of DDT cells; endogenous in cells; host or cells: DDT cells (DDT1, hamster vas deferens smooth muscle cell line), membrane preparation
T1 sequence (A0A1U8BVR4 1-326): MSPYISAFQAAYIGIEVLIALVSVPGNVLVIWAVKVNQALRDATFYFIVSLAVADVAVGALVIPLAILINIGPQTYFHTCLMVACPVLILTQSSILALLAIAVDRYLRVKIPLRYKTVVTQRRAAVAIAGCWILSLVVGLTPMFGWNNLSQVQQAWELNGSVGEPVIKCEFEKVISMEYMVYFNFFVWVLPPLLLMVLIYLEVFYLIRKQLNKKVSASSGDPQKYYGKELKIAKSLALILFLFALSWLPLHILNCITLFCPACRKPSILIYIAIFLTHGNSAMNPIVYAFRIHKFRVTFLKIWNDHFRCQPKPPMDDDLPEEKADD
The assay can be described thus: Competitive radioligand binding assay, A1 binding affinity, DDT1 cell membranes. The settings on record: membranes of DDT cells, tritiated radioligand (3H-CPA) 1.5 nM, 23° C. 90 minutes. Set-up: species or system hamster. How it is done: DDT cells (hamster vas deferens smooth muscle cell line) were grown as monolayers in petri dishes using Dulbecco's Modified Eagle's Medium (DMEM) containing 2.5 μg mL^−1 amphotericin B, 100 U mL^−1 penicillin G, 0.1 mg mL^−1 streptomycin sulfate and 5% fetal bovine serum in a humidified atmosphere of 95% air and 5% CO2. Cells were subcultured twice weekly by dispersion in Hank's Balanced Salt Solution (HBSS) without the divalent cations and containing 1 mM EDTA. The cells were then seeded in growth medium at a density of 1.2×10^5 cells per plate and experiments were performed 4 days later at approximately one day preconfluence.
Attached cells were washed twice with HBSS (2×10 mL), scraped free of the plate with the aid of a rubber policeman in 5 mL of 50 mM Tris-HCl buffer pH 7.4 at 4° C. and the suspension was homogenized for 10 s. The suspension was then centrifuged at 27,000×g for 10 min. The pellet was resuspended in homogenization buffer by vortexing and centrifuged again as described above. The final pellet was resuspended in 1 vol of 50 mM Tris-HCl buffer pH 7.4 containing 5 mM MgCl2 for A1 adenosine receptor assays. For the [^35S]GTPγS binding assay the final pellet was resuspended in 50 mM Tris-HCl pH 7.4 containing 5 mM MgCl2, 100 mM NaCl and 1 mM dithiothreitol. This membrane suspension was then placed in liquid nitrogen for 10 min and stored at −80° C. Aliquots of the membrane suspension were later thawed and used for assays. The protein content was determined with a Bradford™ Assay Kit using bovine serum albumin as standard.
Briefly, 50-70 ug of membrane protein were incubated in a mixture containing 2U/ml adenosine deaminase and 10 μM GTP-γS in 50 mM Tris-HCl buffer, pH 7.4, with 1 mM EDTA in glass tubes. Stock solutions of the compounds of the invention were serially diluted (10^−10M to 10^−4M) in Tris buffer and added to the incubation mixture. […] After incubation at 23° C. 90 minutes, the reaction was stopped by filtration on a Brandel MR24 cell harvester and washing with ice-cold Tris-EDTA buffer (three times, approximate volume 10 ml/wash) over Whatman GF/B filters (presoaked for 1 h in 0.3% polyethylenimine to reduce non-specific binding). Filters were transferred to scintillation vials and 5 ml of Scintisafe (VWR, Brisbane, Calif.) was added. The amount of radioactivity retained on the filters was determined by liquid scintillation spectrometry.
By Ki is commonly meant the dissociation constant of the complex between target and ligand, obtained from inhibition or displacement. For `CCNC(=O)[C@H]1O[C@@H](n2cnc3c(N[C@@H]4CCOC4)nc(-n4cc(-c5ccc6ccccc6n5)cn4)nc32)[C@H](O)[C@@H]1O`, the inhibition constant (Ki) stood at 74 nM.

In the case of `Cc1cc(C)n(-c2nc(NC3CCCC3)c3ncn(C4O[C@H](CO)[C@@H](O)[C@H]4O)c3n2)n1` (some centres unmarked) [listing 1 of 2 here], the inhibition constant (Ki) was determined as 134 nM.

As to `CCNC(=O)[C@H]1O[C@@H](n2cnc3c(N[C@@H]4CCOC4)nc(-n4cc(-c5ccncc5)cn4)nc32)[C@H](O)[C@@H]1O`, the affinity corresponds to a Ki of 1060 nM.

On to `Cc1ccc(-c2cnn(-c3nc(N[C@@H]4CCOC4)c4ncn([C@@H]5O[C@H](C(=O)O)[C@@H](O)[C@H]5O)c4n3)c2)cc1`, for which the Ki came to 121 nM.

Take `Cc1cc(C)n(-c2nc(NC3CCCC3)c3ncn(C4O[C@H](CO)[C@@H](O)[C@H]4O)c3n2)n1` (some centres unmarked) [listing 2 of 2 here]: the Ki came to 94 nM.

In turn, `CCOC(=O)c1cnn(-c2nc(NC3CCCC3)c3ncn([C@@H]4O[C@H](CO)[C@@H](O)[C@H]4O)c3n2)c1` (single isomer, unassigned) [XXV] gave a Ki of 0.9 nM.

`O=C(NCc1cc(F)cc(C(F)(F)F)c1)c1cnn(-c2nc(N[C@@H]3CCOC3)c3ncn([C@@H]4O[C@H](CO)C(O)C4O)c3n2)c1` (stereo in doubt) [XXI, (1-{6-[((3R)oxolan-3-yl)amino]-9-[(3S,2R,4R,5R)-3,4-dihydroxy-5-(hydroxymethyl)oxolan-2-yl]purin-2-yl}pyrazol-4-yl)-N-{[5-fluoro-3-(trifluoromethyl)phenyl]methyl}carboxamide] gave a Ki of 56 nM.

Compound `CCOC(=O)c1cnn(-c2nc(NC3CCCC3)c3ncn([C@@H]4O[C@H](CO)[C@@H](O)[C@H]4O)c3n2)c1` [III, ethyl 1-{9-[(4S,3R,5R)-3,4-dihydroxy-5-(hydroxymethyl)oxolan-2-yl]-6-(cyclopentylamino)purin-2-yl}pyrazole-4-carboxylate] registered a Ki of 36 nM.

Take `CCNC(=O)[C@H]1O[C@@H](n2cnc3c(NC4CCOC4)nc(-n4cc(-c5ccc(C)cc5)cn4)nc32)[C@H](O)[C@@H]1O` (some centres unmarked) [I]: the inhibition constant (Ki) came to 2000 nM.

`CCNC(=O)c1cnn(-c2nc(N[C@@H]3CCOC3)c3ncn([C@@H]4O[C@H](CO)[C@@H](O)[C@H]4O)c3n2)c1` [XI, (1-{6-[((3R)oxolan-3-yl)amino]-9-[(4S,2R,3R,5R)-3,4-dihydroxy-5-(hydroxymethyl)oxolan-2-yl]purin-2-yl}pyrazol-4-yl)-N-ethylcarboxamide] had a Ki of 10 nM.

For the compound `CCOC(=O)c1cnn(-c2nc(NCc3ccccc3)c3ncn([C@@H]4O[C@H](CO)[C@@H](O)[C@H]4O)c3n2)c1` [XII, ethyl 1-{9-[(4S,2R,3R,5R)-3,4-dihydroxy-5-(hydroxymethyl)oxolan-2-yl]-6-[benzylamino]purin-2-yl}pyrazole-4-carboxylate], the inhibition constant Ki is 1720 nM.

Regarding `CCCNC(=O)c1cnn(-c2nc(N[C@@H]3CCOC3)c3ncn([C@@H]4O[C@H](CO)[C@@H](O)[C@H]4O)c3n2)c1` [XIII, (1-{6-[((3R)oxolan-3-yl)amino]-9-[(4S,2R,3R,5R)-3,4-dihydroxy-5-(hydroxymethyl)oxolan-2-yl]purin-2-yl}pyrazol-4-yl)-N-propylcarboxamide], the Ki came out at 10 nM.

In the case of `CCCNC(=O)c1cnn(-c2nc(NCc3ccccc3)c3ncn([C@@H]4O[C@H](CO)[C@@H](O)[C@H]4O)c3n2)c1` [XIV, (1-{9-[(4S,2R,3R,5R)-3,4-dihydroxy-5-(hydroxymethyl)oxolan-2-yl]-6-[benzylamino]purin-2-yl}pyrazol-4-yl)-N-propylcarboxamide], the affinity, expressed as Ki, was 1090 nM.

`O=C(NCc1ccc(F)cc1)c1cnn(-c2nc(N[C@@H]3CCOC3)c3ncn([C@@H]4O[C@H](CO)[C@@H](O)[C@H]4O)c3n2)c1` [XIX, (1-{6-[((3R)oxolan-3-yl)amino]-9-[(4S,2R,3R,5R)-3,4-dihydroxy-5-(hydroxymethyl)oxolan-2-yl]purin-2-yl}pyrazol-4-yl)-N-[(4-fluorophenyl)methyl] carboxamide] displayed an inhibitory constant (Ki) of 43 nM.

In turn, `CCNC(=O)c1cnn(-c2nc(NCc3ccccc3)c3ncn([C@@H]4O[C@H](CO)[C@@H](O)[C@H]4O)c3n2)c1` [XV, (1-{9-[(4S,2R,3R,5R)-3,4-dihydroxy-5-(hydroxymethyl)oxolan-2-yl]-6-[benzylamino]purin-2-yl}pyrazol-4-yl)-N-ethylcarboxamide] had an inhibition constant Ki of 1530 nM.

In turn, `CNC(=O)c1cnn(-c2nc(NCc3ccccc3)c3ncn([C@@H]4O[C@H](CO)[C@@H](O)[C@H]4O)c3n2)c1` [XVI, (1-{9-[(4S,2R,3R,5R)-3,4-dihydroxy-5-(hydroxymethyl)oxolan-2-yl]-6-[benzylamino]purin-2-yl}pyrazol-4-yl)-N-methylcarboxamide] displayed an inhibitory constant (Ki) of 1790 nM.

`O=C(O)c1ccc(-c2cnn(-c3nc(N[C@@H]4CCOC4)c4ncn(C5OC(CO)C(O)C5O)c4n3)c2)nc1` (stereo partly drawn) [XVII, 6-(1-{6-[((3R)oxolan-3-yl)amino]-9-[3,4-dihydroxy-5-(hydroxymethyl)oxolan-2-yl]purin-2-yl}pyrazol-4-yl)pyridine-3-carboxylic acid] gave a Ki of 64 nM.

`O=C(NCc1ccc(Cl)cc1)c1cnn(-c2nc(N[C@@H]3CCOC3)c3ncn([C@@H]4O[C@H](CO)[C@@H](O)[C@H]4O)c3n2)c1` [XVIII, (1-{6-[((3R)oxolan-3-yl)amino]-9-[(4S,2R,3R,5R)-3,4-dihydroxy-5-(hydroxymethyl)oxolan-2-yl]purin-2-yl}pyrazol-4-yl)-N-[(4-chlorophenyl)methyl]carboxamide] registered a Ki of 27 nM.

In turn, `O=C(NCc1ccccc1)c1cnn(-c2nc(N[C@@H]3CCOC3)c3ncn([C@@H]4O[C@H](CO)[C@@H](O)[C@H]4O)c3n2)c1` [XX, (1-{6-[((3R)oxolan-3-yl)amino]-9-[(4S,2R,3R,5R)-3,4-dihydroxy-5-(hydroxymethyl)oxolan-2-yl]purin-2-yl}pyrazol-4-yl)-N-benzylcarboxamide] registered a Ki of 1 nM.

On to `COC(=O)c1ccc(CNC(=O)c2cnn(-c3nc(N[C@@H]4CCOC4)c4ncn([C@@H]5O[C@H](CO)[C@@H](O)[C@H]5O)c4n3)c2)cc1` [XXIX, methyl 4-{[(1-{6-[((3R)oxolan-3-yl)amino]-9-[(4S,2R,3R,5R)-3,4-dihydroxy-5-(hydroxymethyl)oxolan-2-yl]purin-2-yl}pyrazol-4-yl)carbonylamino]methyl}benzoate], for which the inhibition constant (Ki) turned out to be 6 nM.

Consider `O=C(O)c1ccc(CNC(=O)c2cnn(-c3nc(N[C@@H]4CCOC4)c4ncn([C@@H]5O[C@H](CO)[C@@H](O)[C@H]5O)c4n3)c2)cc1` [XXX, 4-{[(1-{6-[((3R)oxolan-3-yl)amino]-9-[(4S,2R,3R,5R)-3,4-dihydroxy-5-(hydroxymethyl)oxolan-2-yl]purin-2-yl}pyrazol-4-yl)carbonylamino]methyl}benzoic acid], for which the Ki came to 8 nM.

`O=C(O)c1cnn(-c2nc(NC3CCCC3)c3ncn([C@@H]4O[C@H](CO)[C@@H](O)[C@H]4O)c3n2)c1` [XXXI, 1-{9-[(4S,3R,5R)-3,4-dihydroxy-5-(hydroxymethyl)oxolan-2-yl]-6-(cyclopentylamino)purin-2-yl}pyrazole-4-carboxylic acid] gave a Ki of 8 nM.

As for `NC(=O)c1cnn(-c2nc(NC3CCCC3)c3ncn([C@@H]4O[C@H](CO)[C@@H](O)[C@H]4O)c3n2)c1` [XXXII, 1-(9-[(4S,3R,5R)-3,4-dihydroxy-5-(hydroxymethyl)oxolan-2-yl]-6-(cyclopentylamino)purin-2-yl}pyrazole-4-carboxamide], the inhibition constant (Ki) was 0.59 nM.
